Test results published in ChEMBL document CHEMBL1201862, “PubChem BioAssay data set” (2004).
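A five-concentration, 48-hour dose response in 96-well plates underlies each endpoint, interpolated linearly between surrounding concentrations. Abbreviation: GI50, concentration required for 50% inhibition of growth.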 Activity calls are given as the source filed them. No stated cut-off is given here; in the data, active = GI50 up to about 1.1 µM and inactive = higher.

Experiments:
Assay in all cases: NCI tumour cell line growth inhibition, 48 h
HCC 2998 = test system: HCC 2998
KM12 = test system: KM12
TK-10 = test system: TK-10
OVCAR-8 = test system: OVCAR-8
SK-MEL-5 = test system: SK-MEL-5
MDA-MB-231 = test system: MDA-MB-231
UACC-62 = test system: UACC-62
SF-295 = test system: SF-295
HT-29 = test system: HT-29
OVCAR-4 = test system: OVCAR-4
PC-3 = test system: PC-3
OVCAR-3 = test system: OVCAR-3
786-0 = test system: 786-0
UO-31 = test system: UO-31
CCRF-CEM = test system: CCRF-CEM
SK-MEL-2 = test system: SK-MEL-2
SF-268 = test system: SF-268
RXF 393 = test system: RXF 393
LOX IMVI = test system: LOX IMVI
RPMI-8226 = test system: RPMI-8226

| Compound | GI50 (HCC 2998) | GI50 (KM12) | GI50 (TK-10) | GI50 (OVCAR-8) | GI50 (SK-MEL-5) | GI50 (MDA-MB-231) | GI50 (UACC-62) | GI50 (SF-295) | GI50 (HT-29) | GI50 (OVCAR-4) | GI50 (PC-3) | GI50 (OVCAR-3) | GI50 (786-0) | GI50 (UO-31) | GI50 (CCRF-CEM) | GI50 (SK-MEL-2) | GI50 (SF-268) | GI50 (RXF 393) | GI50 (LOX IMVI) | GI50 (RPMI-8226) |
| --- | --- | --- | --- | --- | --- | --- | --- | --- | --- | --- | --- | --- | --- | --- | --- | --- | --- | --- | --- | --- |
| COC(=O)c1ccccc1C1CN=NC12Cc1cc(C)cc(C)c1C2=O (stereo unspecified) | 46.9 µM (inactive) | 29.9 µM (inactive) | 60.4 µM (inactive) | > 100 µM (inactive) | 31.3 µM (inactive) | 14.4 µM (inactive) | 75.5 µM (inactive) | 48.6 µM (inactive) | 23.4 µM (inactive) | 65.3 µM (inactive) | 37.5 µM (inactive) | 96.6 µM (inactive) | > 100 µM (inactive) | 43 µM (inactive) | 33.4 µM (inactive) | > 100 µM (inactive) | > 100 µM (inactive) | > 100 µM (inactive) | 20 µM (inactive) |  |
| COC(=O)C1=C(O)C(C(=O)OC)[C@]2(O)[C@H](C(=O)OC)[C@H]1C[C@@H](c1ccc(OC)c(OC)c1)[C@H]2C(=O)OC (stereo partly specified) | 11.7 µM (inactive) | 21.1 µM (inactive) | 24.9 µM (inactive) | 13.3 µM (inactive) | 13.3 µM (inactive) | 34.2 µM (inactive) | 22.9 µM (inactive) | 17.9 µM (inactive) | 36.9 µM (inactive) | 29.6 µM (inactive) | 25.4 µM (inactive) | 16.5 µM (inactive) | 39.8 µM (inactive) | 24.5 µM (inactive) | 0.129 µM (active) | 20 µM (inactive) |  | 14.3 µM (inactive) | 13.4 µM (inactive) | 3.27 µM (inactive) |
| Cc1nc(SCC(=O)Nc2ccc(Cl)cc2)c2sc(=S)n(-c3ccccc3)c2n1 | > 10 µM (inactive) | > 10 µM (inactive) | > 10 µM (inactive) | > 10 µM (inactive) | > 10 µM (inactive) | > 10 µM (inactive) | > 10 µM (inactive) | > 10 µM (inactive) | > 10 µM (inactive) | > 10 µM (inactive) | > 10 µM (inactive) | > 10 µM (inactive) | > 10 µM (inactive) |  | > 10 µM (inactive) | > 10 µM (inactive) | > 10 µM (inactive) | > 10 µM (inactive) | > 10 µM (inactive) | > 10 µM (inactive) |
| COC(=O)C(CCCCN)NC(=O)C(CCCCN)NC(=O)C(CCCCN)NC(C)=O.Cc1ccc(C(=O)Nc2ccc(S(=O)(=O)O)c3cc(S(=O)(=O)O)cc(S(=O)(=O)O)c23)cc1NC(=O)c1cccc(NC(=O)Nc2cccc(C(=O)Nc3cc(C(=O)Nc4ccc(S(=O)(=O)O)c5cc(S(=O)(=O)O)cc(S(=O)(=O)O)c45)ccc3C)c2)c1 | > 50 µM (inactive) | > 50 µM (inactive) |  | > 50 µM (inactive) | > 50 µM (inactive) | > 50 µM (inactive) | > 50 µM (inactive) | > 50 µM (inactive) | > 50 µM (inactive) | 11.3 µM (inactive) | > 50 µM (inactive) | > 50 µM (inactive) | > 50 µM (inactive) | > 50 µM (inactive) | > 50 µM (inactive) | > 50 µM (inactive) | 43 µM (inactive) | > 50 µM (inactive) | > 50 µM (inactive) | > 50 µM (inactive) |
| c1ccc(C/C(=N\Nc2nc3ccccc3[nH]2)c2ccccn2)cc1 | 13.1 µM (inactive) | 0.16 µM (active) |  | 0.0235 µM (active) | 0.0408 µM (active) | 0.0396 µM (active) | 0.147 µM (active) | 1.92 µM (inactive) | < 0.01 µM (active) | < 0.01 µM (active) | < 0.01 µM (active) | < 0.01 µM (active) | 0.0316 µM (active) | 0.0261 µM (active) | < 0.01 µM (active) | 2.89 µM (inactive) | 0.0444 µM (active) | 0.166 µM (active) | 0.119 µM (active) | < 0.01 µM (active) |
| OC(CC(O)(C(F)(F)F)C(F)(F)F)c1ccc(C(O)CC(O)(C(F)(F)F)C(F)(F)F)cc1 (stereo unspecified) | 17.2 µM (inactive) |  |  | 15.9 µM (inactive) | 13.9 µM (inactive) | 14.3 µM (inactive) | 12.2 µM (inactive) | 18.2 µM (inactive) | 12.3 µM (inactive) | 15.7 µM (inactive) | 18.2 µM (inactive) | 6.38 µM (inactive) | 20.4 µM (inactive) | 10.8 µM (inactive) | 16.8 µM (inactive) | 22.3 µM (inactive) | 14.9 µM (inactive) | 15 µM (inactive) | 16.7 µM (inactive) | 15.6 µM (inactive) |
| Nc1nc2c(c(=O)[nH]1)N=C(COP(=O)(O)OP(=O)(O)O)CN2 | > 100 µM (inactive) | > 100 µM (inactive) | > 100 µM (inactive) | > 100 µM (inactive) | > 100 µM (inactive) | > 100 µM (inactive) | > 100 µM (inactive) | > 100 µM (inactive) | > 100 µM (inactive) |  | > 100 µM (inactive) |  | > 100 µM (inactive) | > 100 µM (inactive) | > 100 µM (inactive) | > 100 µM (inactive) | > 100 µM (inactive) | > 100 µM (inactive) | > 100 µM (inactive) | > 100 µM (inactive) |
